{"source": "patent US3974281A", "about": "“5-Methyl-1-phenyl-2-(1H)-pyridone compositions and methods of use” (priority 1974, dated 1976)", "key": {"[1]": {"system": "rats with the hind limb inflammed", "assay": "Analgesic activity, rats with inflamed hind limb (absence of squeal on flexion of inflamed ankle joint)", "type": "in vivo, rat", "conditions": "for ED50: Rattus norvegicus, read-out: oral ED50 (median analgesic dose); for ED50 / side effects at the median analgesic dose: oral; for side effects at the median analgesic dose: at ED50 dosage (AMR-94 160 mg./kg.; AMR-93 325 mg./kg.)", "experimental": "the end-point for analgesic testing in rats with the hind limb inflammed is based on the absence of a squeal in response to flexion of the inflammed ankle joint (Method described by S. Margolin, Proceedings of an International Symposium on Non-Steroidal Anti-Inflammatory Drugs, Excerpta Medica International Congress, Series No. 82, 1964).\nWith AMR-93, the median effective dose was 325 ± 45 mg./kg."}, "[2]": {"system": "edema (swelling), experimental inflammation in the hind limb of rats", "assay": "Anti-inflammatory activity, reduction of edema of experimentally inflamed hind limb", "type": "in vivo, albino rats", "conditions": "for anti-inflammatory effect: oral dosage of 600 mg./kg.; for ED50: Rattus norvegicus, read-out: oral median effective dose (ED50), anti-inflammatory", "experimental": "anti-inflammatory activity was assayed by the method described by Margolin (ibid.) utilizing albino rats. The anti-inflammatory bio-assay basis is the ability to reduce the edema (swelling) when an experimental inflammation is induced in the hind limb of the rats."}, "[3]": {"system": "experimentally-induced fever in albino rabbits", "assay": "Anti-pyretic activity, experimentally-induced fever in rabbits", "type": "in vivo", "conditions": "for anti-pyretic activity: induced fever", "experimental": "anti-pyretic activity testing is based upon the ability of the drug to suppress the experimentally-induced fever in albino rabbits (F. M. Berger, et al. J. Pharmacology and Experimental Therapeutics, Vol. 127, No. 1, 1959 based upon the original presentations of G. Brownlee Quart. J. Pharm; Vol. 10, Pg. 609, 1937 and Quart. J. Pharm., Vol. 12, Pg. 45, 1939). The drugs under test are administered intraperitoneally and the response is compared to that of saline controls. The average change in temperature over a period of three hours following the administration of aminopyrine (100 mg./kg. i.p.), AMR-69 (100 mg./kg. i.p.) and the saline (isotonic) controls were as follows:\nThe effective anti-pyretic activity of AMR-69 in rabbits has been noted previously."}, "[4]": {"system": "mucous membranes of the nasopharynx and lungs", "assay": "Protection of mucous membranes of the nasopharynx and lungs, comparison with related pyridones", "type": "in vivo", "conditions": "for protection of mucous membranes of the nasopharynx and lungs: comparison with related pyridones; for side effects / deleterious effects on the respiratory system: mucous membrane protection tests"}, "[5]": {"assay": "General comparison of side effects and therapeutic activity in the several tests", "conditions": "in vivo"}, "serum uric acid": {"system": "serum uric acid", "assay": "Reduction in serum uric acid levels, rats", "type": "in vivo, albino male and female rats", "conditions": "albino male and female rats, similar tests", "experimental": "normal adult albino male and female rats were given repeated graded doses of AMR-69 and the effect upon serum uric acid levels was determined. There were 10 males and 10 females in each group. The control group received the placebo and the drug was administered orally by admixture to the food. The serum uric acid determination was one of a series performed utilizing the Autotechnicon technique (Lofland et al., 1965 Technicon Symposium) using the Standard SMA-12 procedure (based upon procedure of Bittner et al., AM. J. Clin. Path. 40:423, 1963).\nThe lowering in serum uric acid levels shown by AMR-69 in tests on rats and on dogs has been noted."}, "[6]": {"system": "experimentally-induced fever in albino rabbits", "assay": "Anti-pyretic activity, experimentally-induced fever in rabbits", "type": "in vivo", "conditions": "animals without experimentally induced fever as well"}, "Acute toxicity in mice": {"assay": "Acute toxicity in mice", "type": "in vivo", "conditions": "mouse, in vivo, ip; fasted albino mice, intraperitoneal; read-out: Intraperitoneally LD50", "experimental": "in fasted albino mice (Flanders) the LD50 for AMR-69 and aminopyrine was determined by standard procedures with the following results: […]"}}}
{"compound": "Cc1cccn(-c2ccccc2)c1=O", "note": "[AMR-77, 3-methyl-1-phenyl-2-(1H)-pyridone]", "values": [{"measurement": "ED50", "setting": "[1]", "value": "515 ± 45", "unit": "mg/kg"}, {"measurement": "analgesic activity relative to AMR-69", "setting": "[1]; oral route", "value": "approximately one-third to one-fourth the activity of AMR-69"}, {"measurement": "anti-inflammatory effect", "setting": "[2]", "value": "No anti-inflammatory effect was observed"}, {"measurement": "anti-pyretic activity", "setting": "[3]; rabbits", "value": "No significant anti-pyretic activity was observed"}, {"measurement": "protection of mucous membranes of the nasopharynx and lungs", "setting": "[4]", "value": "no evidence of protective action"}, {"measurement": "side effects / deleterious effects on the respiratory system", "setting": "[4]", "value": "No acute deleterious effects on the respiratory system were observed"}, {"measurement": "deleterious side effects in the several tests", "setting": "[5]", "value": "not observed"}, {"measurement": "therapeutic activity in the several tests", "setting": "[5]", "value": "neither was significant therapeutic activity demonstrated"}]}
{"compound": "O=c1ccccn1-c1ccccc1", "note": "[AMR-93, 1-phenyl-2-(1H)-pyridone]", "values": [{"measurement": "ED50", "setting": "[1]", "value": "325 ± 45", "unit": "mg/kg"}, {"measurement": "side effects at the median analgesic dose", "setting": "[1]", "value": "acute bleeding from the nose and an autopsy revealed multiple hemorrhages and edema of the lungs"}, {"measurement": "anti-inflammatory effect", "setting": "[2]", "value": "No anti-inflammatory effect was observed"}, {"measurement": "anti-pyretic activity", "setting": "[3]; rabbits", "value": "No significant anti-pyretic activity was observed"}, {"measurement": "change in serum uric acid level", "setting": "serum uric acid", "value": "did not show a significant change in serum uric acid level"}, {"measurement": "protection of mucous membranes of the nasopharynx and lungs", "setting": "[4]", "value": "did not show a protective effect"}, {"measurement": "side effects / deleterious effects on the respiratory system", "setting": "[4]", "value": "undesirable side effects were evident"}, {"measurement": "deleterious side effects in the several tests", "setting": "[5]", "value": "accompanied by deleterious side effects"}]}
{"compound": "CCc1ccc(=O)n(-c2ccccc2)c1", "note": "[AMR-94, 5-ethyl-1-phenyl-2-(1H)-pyridone]", "values": [{"measurement": "analgesic effect at a dosage low enough to obviate Central Nervous System depression", "setting": "[1]", "value": "could not be demonstrated"}, {"measurement": "ED50", "setting": "[1]", "value": "160 ± 32", "unit": "mg/kg"}, {"measurement": "side effects at the median analgesic dose", "setting": "[1]", "value": "marked sedation, Central Nervous System depression, loss of respiratory efficiency, ataxia, and uncoordinated gait"}, {"measurement": "ED50", "setting": "[2]; oral", "value": "225 ± 52", "unit": "mg/kg"}, {"measurement": "side-effects at anti-inflammatory ED50", "setting": "[2]; oral", "value": "accompanied by undesired side-effects"}, {"measurement": "convulsions observed, test animals", "setting": "[3]; rabbits", "value": "two of the four"}, {"measurement": "anti-pyretic activity", "setting": "[3]; rabbits", "value": "slight reduction in induced fever which was not considered statistically significant"}, {"measurement": "change in serum uric acid level", "setting": "serum uric acid", "value": "did not show a significant change in serum uric acid level"}, {"measurement": "protection of mucous membranes of the nasopharynx and lungs", "setting": "[4]", "value": "did not show a protective effect"}, {"measurement": "side effects / deleterious effects on the respiratory system", "setting": "[4]", "value": "undesirable side effects were evident"}, {"measurement": "deleterious side effects in the several tests", "setting": "[5]", "value": "accompanied by deleterious side effects"}, {"measurement": "effect on normal body temperature", "setting": "[6]", "value": "marked lowering of normal body temperature"}]}
{"compound": "Cc1c(N(C)C)c(=O)n(-c2ccccc2)n1C", "note": "[Aminopyrine, aminopyrine, reference compound]", "values": [{"measurement": "ED50", "setting": "[1]", "value": "150 ± 26", "unit": "mg/kg"}, {"measurement": "ED50", "setting": "[2]; oral", "value": "185 ± 31", "unit": "mg/kg"}, {"measurement": "average change in temperature over a period of three hours", "setting": "[3]; 100 mg./kg. i.p., fevered albino rabbits, saline controls +0.9 ±0.17°C", "value": "-0.6 ±0.16", "unit": "°C"}, {"measurement": "reduction in fever as compared to the saline control", "setting": "[3]; 100 mg./kg. i.p., aminopyrine t = 6.6, p < 0.01, AMR-69 t = 6.3, p < 0.01", "value": "highly significant"}, {"measurement": "LD50", "setting": "Acute toxicity in mice", "value": "175 ± 9", "unit": "mg/kg"}]}
